US9441023B2, “Peptide YY analogs” (GlaxoSmithKline Intellectual Property Development Limited, priority 2013, dated 2016)
Where no end group is shown, it is not given here.

Columns and labels:
[1] = cumulative food intake, lean mice (Model A), BioDaQ system; assay type: in vivo; settings: lean male C57BL/6 mice, 1 mg/kg s.c., relative to vehicle, negative = reduction
Experimental: Cumulative food intake after 6 h was determined for the PYY analogs in either lean (Model A) or diet-induced obese (DIO) (Model B) C57BL/6 mice in a BioDaQ system for continuous monitoring of food intake (Research Diets Inc., New Brunswick, N.J.). […] Mice were placed singly into the BioDaQ cages and acclimatized for a minimum of 6 days and were allowed ad libitum access to food and water. Approximately 1 hour prior to lights-out, animals were dosed subcutaneously with either vehicle (20 mM Acetate buffer, pH 4.9 or 20% DMSO in water) or analogs dissolved in vehicle (1 mg/kg) (8 animals per group). Once all animals have been dosed, feeder gates were opened providing ad-libitum access to food. Continuous food intake was monitored and collected for 15 hours. […] P-values <0.05 were considered to indicate a significant difference between treatment groups.

[2] = chronic (41 days) efficacy study in DIO Long Evans rats: body weight, body composition, food intake; assay type: in vivo, Long Evans rat; settings: DIO LE rats
Experimental: Rats were 17 weeks old at the start of the study. The rats were housed 1 per cage and given ad libitum access to TD.95217 chow and water, maintained on a 12 h light/dark cycle from 5:00 AM to 5:00 PM at 21° C. and 50% relative humidity and allowed to acclimate for at least 7 days prior to baseline measurements. Baseline fat mass and non-fat mass measurements were taken 3 days before the start of peptide infusion and on day 40 of treatment using a QMR instrument (Echo Medical Systems, Houston, Tex.). […] Each rat was implanted with two osmotic pumps subcutaneously in the scapula region containing vehicle or peptide according to their treatment group. Body weight and food intake were measured twice per week beginning three days before the 41-day treatment period. On day 41 of treatment, whole blood was collected by cardiac stick under isoflurane anesthesia. Plasma and serum were then prepared from the whole blood for serum chemistry analysis. All the data are presented as mean±SEM. The data were analyzed in either Prism (GraphPad Software, Inc., La Jolla, Calif.) or Excel using a Student's T-test to compare each group to the appropriate control group. P-values <0.05 were considered to indicate a significant difference between treatment groups.

[3] = chronic (26 days) efficacy study in diabetic ZDF rats: glucose and HbA1c; assay type: in vivo, Zucker Diabetic Fatty (ZDF) rat
Source text: Male ZDF rats were 12 weeks old at the start of the study (Charles River, Inc., Boston, Mass.). […] Baseline fat mass and non-fat mass measurements were taken 3 days before the start of peptide infusion and on day 26 of treatment using a QMR instrument (Echo Medical Systems, Houston, Tex.). […] P-values <0.05 were considered to indicate a significant difference between treatment groups.

[4] = Table 1, cumulative food intake after 6 h
[5] = s.c. infusion, used as study dose

Row | Compound | % reduction in food intake, model A ([1]; Table 2, 6 h time point) [%] | % reduction in food intake, model A [1, 4] [%] | other results
1 | H-PKPEAPGCDASPEEWNRYYASLRKYLNWVTRQNY-NH2 [Peptide 1] | 5 | – | –
2 | CC(C)C[C@H](NC(=O)[C@H](CC(=O)O)NC(=O)[C@H](C)NC(=O)[C@H](Cc1ccc(O)cc1)NC(=O)[C@H](Cc1ccc(O)cc1)NC(=O)[C@H](CCCNC(=N)N)NC(=O)[C@H](CC(N)=O)NC(=O)[C@H](Cc1c[nH]c2ccccc12)NC(=O)[C@H](CCC(=O)O)NC(=O)[C@H](CCC(=O)O)NC(=O)[C@@H]1CCCN1C(=O)[C@H](CO)NC(=O)[C@H](C)NC(=O)[C@H](CC(=O)O)NC(=O)[C@H](CCCCN)NC(=O)CNC(=O)[C@@H]1CCCN1C(=O)[C@H](C)NC(=O)[C@H](CCC(=O)O)NC(=O)[C@@H]1CCCN1C(=O)[C@H](CCCCN)NC(=O)[C@@H]1CCCN1)C(=O)N[C@@H](CCCNC(=N)N)C(=O)N[C@@H](CCCCN)C(=O)N[C@@H](Cc1ccc(O)cc1)C(=O)N[C@@H](CC(C)C)C(=O)N[C@@H](CC(N)=O)C(=O)N[C@@H](Cc1c[nH]c2ccccc12)C(=O)N[C@H](C(=O)N[C@H](C(=O)N[C@@H](CCCNC(=N)N)C(=O)N[C@@H](CCC(N)=O)C(=O)N[C@@H](CCCNC(=N)N)C(=O)N[C@@H](Cc1ccc(O)cc1)C(N)=O)[C@@H](C)O)C(C)C [Example 8] | – | −74 | –
3 | H-PKPEAPGCDASPEEWNRYYASLRKYLNWVTRQHY-NH2 [Peptide 14] | 24 | – | –
4 | PKPVAPGCDASPAELNRQYSDLRNYWNLVTRQRY-NH2 [Peptide 15] | −17 | – | –
5 | H-PKPEAPGEDASPKEWNRYYASLRKYLNWVTRQRY-NH2 [Peptide 3] | −30 | – | –
6 | CC(C)C[C@H](NC(=O)[C@H](CO)NC(=O)[C@H](C)NC(=O)[C@H](Cc1ccc(O)cc1)NC(=O)[C@H](Cc1ccc(O)cc1)NC(=O)[C@H](CCCNC(=N)N)NC(=O)[C@H](CC(N)=O)NC(=O)[C@H](Cc1c[nH]c2ccccc12)NC(=O)[C@H](CCC(=O)O)NC(=O)[C@H](CCC(=O)O)NC(=O)[C@@H]1CCCN1C(=O)[C@H](CO)NC(=O)[C@H](C)NC(=O)[C@H](CC(=O)O)NC(=O)[C@H](CCCCN)NC(=O)CNC(=O)[C@@H]1CCCN1C(=O)[C@H](C)NC(=O)[C@H](CCC(=O)O)NC(=O)[C@@H]1CCCN1C(=O)[C@H](CCCCN)NC(=O)[C@@H]1CCCN1)C(=O)N[C@@H](CCCNC(=N)N)C(=O)N[C@@H](CCCCN)C(=O)N[C@@H](Cc1ccc(O)cc1)C(=O)N[C@@H](CC(C)C)C(=O)N[C@@H](CC(N)=O)C(=O)N[C@@H](Cc1c[nH]c2ccccc12)C(=O)N[C@@H](CC(C)C)C(=O)N[C@H](C(=O)N[C@@H](CCCNC(=N)N)C(=O)N[C@@H](CCC(N)=O)C(=O)N[C@@H](CCCNC(=N)N)C(=O)N[C@@H](Cc1ccc(O)cc1)C(N)=O)[C@@H](C)O [Example 6] | – | −88 | –
7 | H-PQPESPEGNASPEDWACYHAAVRHYVNLITRQRY-NH2 [Peptide 18] | −17 | – | –
8 | CC(C)C[C@H](NC(=O)[C@H](CO)NC(=O)[C@H](C)NC(=O)[C@H](Cc1ccc(O)cc1)NC(=O)[C@H](Cc1ccc(O)cc1)NC(=O)[C@H](CCCNC(=N)N)NC(=O)[C@H](CC(N)=O)NC(=O)[C@H](Cc1c[nH]c2ccccc12)NC(=O)[C@H](CCC(=O)O)NC(=O)[C@H](CCC(=O)O)NC(=O)[C@@H]1CCCN1C(=O)[C@H](CO)NC(=O)[C@H](C)NC(=O)[C@H](CC(=O)O)NC(=O)[C@H](CCCCN)NC(=O)CNC(=O)[C@@H]1CCCN1C(=O)[C@H](C)NC(=O)[C@H](CCC(=O)O)NC(=O)[C@@H]1CCCN1C(=O)[C@H](CCCCN)NC(=O)[C@@H]1CCCN1)C(=O)N[C@@H](CCCNC(=N)N)C(=O)N[C@@H](CCCCN)C(=O)N[C@@H](Cc1ccc(O)cc1)C(=O)N[C@@H](CC(C)C)C(=O)N[C@@H](CC(N)=O)C(=O)N[C@@H](Cc1c[nH]c2ccccc12)C(=O)N[C@H](C(=O)N[C@H](C(=O)N[C@@H](CCCNC(=N)N)C(=O)N[C@@H](CCC(N)=O)C(=O)N[C@@H](CCCNC(=N)N)C(=O)N[C@@H](Cc1ccc(O)cc1)C(N)=O)[C@@H](C)O)C(C)C [Example 10] | – | −88 | –
9 | PYY(3-36)NH2 | – | – | weight loss vs. vehicle ([2]; 40 days, s.c. osmotic pumps, ED50 doses): −1.3%; inhibition of cumulative food intake ([2]; chronic infusion, vs. vehicle control): −0.7%; ΔΔGlucose ([3]; 26 days, change from baseline and vehicle control, ED20 doses): −33.1 ± 17^ mg/dL
10 | CC(C)C[C@H](NC(=O)[C@H](CO)NC(=O)[C@H](C)NC(=O)[C@H](Cc1ccc(O)cc1)NC(=O)[C@H](Cc1ccc(O)cc1)NC(=O)[C@H](CCCNC(=N)N)NC(=O)[C@H](CC(N)=O)NC(=O)[C@H](CC(C)C)NC(=O)[C@H](CCC(=O)O)NC(=O)[C@H](CCC(=O)O)NC(=O)[C@@H]1CCCN1C(=O)[C@H](CO)NC(=O)[C@H](C)NC(=O)[C@H](CC(=O)O)NC(=O)[C@H](CCCCN)NC(=O)CNC(=O)[C@@H]1CCCN1C(=O)[C@H](C)NC(=O)[C@H](CCC(=O)O)NC(=O)[C@@H]1CCCN1C(=O)[C@H](CCCCN)NC(=O)[C@@H]1CCCN1)C(=O)N[C@@H](CCCNC(=N)N)C(=O)N[C@@H](CCCCN)C(=O)N[C@@H](Cc1ccc(O)cc1)C(=O)N[C@@H](CC(C)C)C(=O)N[C@@H](CC(N)=O)C(=O)N[C@@H](Cc1c[nH]c2ccccc12)C(=O)N[C@@H](CC(C)C)C(=O)N[C@H](C(=O)N[C@@H](CCCNC(=N)N)C(=O)N[C@@H](CCC(N)=O)C(=O)N[C@@H](CCCNC(=N)N)C(=O)N[C@@H](Cc1ccc(O)cc1)C(N)=O)[C@@H](C)O [Example 2] | – | −50 | –
11 | PKPEAPLSKQLEEEAVRYYASLRHYLNLVTRQRY-NH2 [Peptide 21] | −2 | – | –
12 | H-IKPEAPLSKQLEEEAVRYYASLRHYLNLVTRQRY-NH2 [Peptide 2] | −12 | – | –
13 | CC(C)C[C@H](NC(=O)[C@H](CO)NC(=O)[C@H](C)NC(=O)[C@H](Cc1ccc(O)cc1)NC(=O)[C@H](Cc1ccc(O)cc1)NC(=O)[C@H](CCCNC(=N)N)NC(=O)[C@H](CC(N)=O)NC(=O)[C@H](CC(C)C)NC(=O)[C@H](CCC(=O)O)NC(=O)[C@H](CCC(=O)O)NC(=O)[C@@H]1CCCN1C(=O)[C@H](CO)NC(=O)[C@H](C)NC(=O)[C@H](CC(=O)O)NC(=O)[C@H](CCCCN)NC(=O)CNC(=O)[C@@H]1CCCN1C(=O)[C@H](C)NC(=O)[C@H](CCC(=O)O)NC(=O)[C@@H]1CCCN1C(=O)[C@H](CCCCN)NC(=O)[C@@H]1CCCN1)C(=O)N[C@@H](CCCNC(=N)N)C(=O)N[C@@H](CCCCN)C(=O)N[C@@H](Cc1ccc(O)cc1)C(=O)N[C@@H](CC(C)C)C(=O)N[C@@H](CC(N)=O)C(=O)N[C@@H](Cc1c[nH]c2ccccc12)C(=O)N[C@H](C(=O)N[C@H](C(=O)N[C@@H](CCCNC(=N)N)C(=O)N[C@@H](CCC(N)=O)C(=O)N[C@@H](CCCNC(=N)N)C(=O)N[C@@H](Cc1ccc(O)cc1)C(N)=O)[C@@H](C)O)C(C)C [Example 31] | – | −59 | –
14 | exendin-4 | – | – | ED50 for weight loss [2, 5]: 0.15 mg/kg/day; ED20 for HbA1c lowering [3, 5]: 0.0055 mg/kg/day
15 | CC[C@H](C)[C@H](N)C(=O)N[C@@H](CCCCN)C(=O)N1CCC[C@H]1C(=O)N1CCC[C@H]1C(=O)N[C@@H](Cc1ccc(O)cc1)C(=O)N1CCC[C@H]1C(=O)NCC(=O)N[C@@H](CS)C(=O)N[C@@H](CC(=O)O)C(=O)N[C@@H](C)C(=O)N[C@@H](CO)C(=O)N1CCC[C@H]1C(=O)N[C@@H](CCC(=O)O)C(=O)N[C@@H](CCC(=O)O)C(=O)N[C@@H](CCC(N)=O)C(=O)N[C@@H](CC(N)=O)C(=O)N[C@@H](CCCCN)C(=O)N[C@@H](Cc1ccc(O)cc1)C(=O)N[C@@H](Cc1ccc(O)cc1)C(=O)N[C@@H](C)C(=O)N[C@@H](CO)C(=O)N[C@@H](CC(C)C)C(=O)N[C@@H](CCCNC(=N)N)C(=O)N[C@@H](C)C(=O)N[C@@H](Cc1ccc(O)cc1)C(=O)N[C@@H](Cc1c[nH]c2ccccc12)C(=O)N[C@@H](CC(N)=O)C(=O)N[C@@H](CC(C)C)C(=O)N[C@H](C(=O)N[C@H](C(=O)N[C@@H](CCCNC(=N)N)C(=O)N[C@@H](CCC(N)=O)C(=O)N[C@@H](CCCNC(=N)N)C(=O)N[C@@H](Cc1ccc(O)cc1)C(N)=O)[C@@H](C)O)C(C)C [Peptide 8] | −19 | – | –
16 | H-PEPEHPGCDASPEDQNKYHASLRKYLNWVTRQRY-NH2 [Peptide 10] | −21 | – | –
